This note sets out measurements from patent US9853225B2, “Chalcogen-containing organic compound and a use thereof” (JNC CORPORATION, priority 2013, dated 2017).

As a reminder, the melting point is the temperature, or range, at which the solid turns liquid.

Series [1] can be described thus: Evaluation of thermal stability, TG/DTA. Type of series: physicochemical. The settings on record: heating 5° C. per minute.
Series [2] can be described thus: Evaluation of chemical stability, UV-Vis spectra of film standing in atmospheric air. Format: physicochemical. As to conditions: vacuum-deposited film 100 nanometers, one week in atmospheric air. The text has this: A film having a thickness of 100 nanometers formed by performing vacuum deposition of the compound synthesized in Example 4 was allowed to stand for one week in atmospheric air. The results obtained by measuring UV-Vis spectra (device used: Jasco V-570 Spectrometer, made by JASCO Corporation) over time during the period are shown in FIG. 3. […] According to the above, the compound of the present invention is clearly found to be chemically stable too.

A short description of series [3]: Evaluation of thermal stability, DSC. Format: physicochemical. The settings on record: heating 5° C. per minute.

In turn, `CCCCCCCCCCc1ccc2cc3c(cc2c1)oc1cc2c(cc13)oc1cc3cc(CCCCCCCCCC)ccc3cc12` [Example 3, 3,11-didecyldinaphtho[2,3-d:2′,3′-d′]benzo[1,2-b:4,5-b′]difuran] yielded a melting point not below 350 °C. Still for that read-out and setting: to `CCCCCCCCCCc1ccc2cc3sc4cc5c(cc4c3cc2c1)sc1cc2ccc(CCCCCCCCCC)cc2cc15` [Example 2, 2,10-didecyldinaphtho[2,3-d:2′,3′-d′]benzo[1,2-b:4,5-b′]dithiophene] belongs 285 to 286 °C; to `CCCCCCCCCCc1ccc2cc3oc4cc5c(cc4c3cc2c1)oc1cc2ccc(CCCCCCCCCC)cc2cc15` [Example 1, 2,10-didecyldinaphtho[2,3-d:2′,3′-d′]benzo[1,2-b:4,5-b′]difuran], 316 to 317 °C; to `CCCCCCc1ccc2cc3c(cc2c1)sc1cc2c(cc13)sc1cc3cc(CCCCCC)ccc3cc12` [Example 5, 3,11-dihexyldinaphtho[2,3-d:2′,3′-d′]benzo[1,2-b:4,5-b′]dithiophene], more than 300 °C. Consider `CCCCCCCCCCc1ccc2cc3c(cc2c1)sc1cc2cc4c(cc2cc13)sc1cc2cc(CCCCCCCCCC)ccc2cc14` [Example 7], for which the melting point is not below 300 °C. The “5% weight reduction temperature” value in series [1] was found to be 450 °C. Also, the “change of UV-Vis spectrum of film” value in series [2] is “no change of the spectrum was observed”. Further, in series [3], the phase transition points entry is “no phase transition point was observed”. Take `CCCCCCCCCCc1ccc2cc3c(cc2c1)sc1cc2c(cc13)sc1cc3cc(CCCCCCCCCC)ccc3cc12` [Example 4, 3,11-didecyldinaphtho[2,3-d:2′,3′-d′]benzo[1,2-b:4,5-b′]dithiophene]: the melting point was 263 to 264 °C. The “5% weight reduction temperature” value in series [1] turned out to be 426 °C. Besides, the “change of UV-Vis spectrum of film” value in series [2] is recorded as “no change of the spectrum was observed”.
